{"source": "patent US20100093804A1", "about": "“NOVEL CRYSTALLINE FORM OF LANSOPRAZOLE” (HETERO DRUGS LIMITED, priority 2006, published 2010)", "key": {"[1]": {"assay": "stability of the crystalline form over time", "type": "physicochemical"}, "[2]": {"details": "cited from earlier work"}, "[3]": {"details": "solid-solid transition to form A; cited from earlier work"}}, "note": "Like-named read-outs stand apart in the source and are kept apart here.", "data": [{"smiles": "Cc1c(OCC(F)(F)F)ccnc1C[S+]([O-])c1nc2ccccc2[nH]1", "note": "(stereo not shown) [lansoprazole form III, 2-[[[3-Methyl-4-(2,2,2-trifluoro-ethoxy)-2-pyridinyl]methyl]sulfinyl]-1H-benzimidazole]", "values": [{"measurement": "stability of crystalline form", "setting": "[1]", "value": "stable"}]}, {"smiles": "Cc1c(OCC(F)(F)F)ccnc1C[S+]([O-])c1nc2ccccc2[nH]1", "note": "(stereo not shown) [lansoprazole crystalline form II, 2-[[[3-Methyl-4-(2,2,2-trifluoro-ethoxy)-2-pyridinyl]methyl]sulfinyl]-1H-benzimidazole]", "values": [{"measurement": "stability of crystalline form on storage", "setting": "[2]; after some period of sample storage at higher temperatures", "value": "converted to stable crystalline form I"}, {"measurement": "stability of crystalline form", "setting": "[2]; at temperatures below 0° C.", "value": "stable"}]}, {"smiles": "Cc1c(OCC(F)(F)F)ccnc1C[S+]([O-])c1nc2ccccc2[nH]1", "note": "(stereo not shown) [crystalline lansoprazole form B, 2-[[[3-Methyl-4-(2,2,2-trifluoro-ethoxy)-2-pyridinyl]methyl]sulfinyl]-1H-benzimidazole]", "values": [{"measurement": "stability of crystalline form", "setting": "[3]", "value": "unstable"}]}]}
